Data as given in the NIST ThermoML archive (doi:10.1021/acs.jced.7b00201).
± gives the expanded uncertainty stated by the source.

Assay: xn = mol fraction of the nth substance listed
Details: 100 kPa, Liquid; for viscosity: Falling or rolling sphere viscometry; for mass density: Vibrating tube method

OCC1CC1 [cyclopropylmethanol] + CCCCCCCCCCCC
viscosity (293.15 K, x1 = 0.1039): 1.484 ± 0.032 mPa·s
viscosity (293.15 K, x1 = 0.2032): 1.521 ± 0.032 mPa·s
viscosity (293.15 K, x1 = 0.3022): 1.605 ± 0.034 mPa·s
viscosity (293.15 K, x1 = 0.3997): 1.683 ± 0.036 mPa·s
viscosity (293.15 K, x1 = 0.4993): 1.884 ± 0.04 mPa·s
viscosity (293.15 K, x1 = 0.5994): 2.084 ± 0.044 mPa·s
viscosity (293.15 K, x1 = 0.7): 2.335 ± 0.05 mPa·s
viscosity (293.15 K, x1 = 0.797): 2.671 ± 0.057 mPa·s
viscosity (293.15 K, x1 = 0.9004): 3.205 ± 0.069 mPa·s
viscosity (293.15 K, x1 = 1): 4.029 ± 0.086 mPa·s
mass density (293.15 K, x1 = 0.1135): 754.8 ± 1 kg/m3
mass density (293.15 K, x1 = 0.2127): 761.38 ± 1 kg/m3
mass density (293.15 K, x1 = 0.3059): 768.71 ± 1 kg/m3
mass density (293.15 K, x1 = 0.3804): 775.49 ± 1 kg/m3
mass density (293.15 K, x1 = 0.5067): 789.46 ± 1 kg/m3
mass density (293.15 K, x1 = 0.6019): 802.62 ± 1 kg/m3
mass density (293.15 K, x1 = 0.7011): 819.64 ± 1 kg/m3
mass density (293.15 K, x1 = 0.7921): 839.53 ± 1 kg/m3
mass density (293.15 K, x1 = 0.8991): 870.68 ± 1 kg/m3
mass density (293.15 K, x1 = 1): 912.99 ± 1 kg/m3
viscosity (298.15 K, x1 = 0.1039): 1.354 ± 0.029 mPa·s
viscosity (298.15 K, x1 = 0.2032): 1.382 ± 0.029 mPa·s
viscosity (298.15 K, x1 = 0.3022): 1.455 ± 0.031 mPa·s
viscosity (298.15 K, x1 = 0.3997): 1.52 ± 0.032 mPa·s
viscosity (298.15 K, x1 = 0.4993): 1.688 ± 0.036 mPa·s
viscosity (298.15 K, x1 = 0.5994): 1.854 ± 0.04 mPa·s
viscosity (298.15 K, x1 = 0.7): 2.068 ± 0.044 mPa·s
viscosity (298.15 K, x1 = 0.797): 2.35 ± 0.05 mPa·s
viscosity (298.15 K, x1 = 0.9004): 2.801 ± 0.06 mPa·s
viscosity (298.15 K, x1 = 1): 3.485 ± 0.075 mPa·s
mass density (298.15 K, x1 = 0.1135): 751.08 ± 1 kg/m3
mass density (298.15 K, x1 = 0.2127): 757.63 ± 1 kg/m3
mass density (298.15 K, x1 = 0.3059): 764.92 ± 1 kg/m3
mass density (298.15 K, x1 = 0.3804): 771.68 ± 1 kg/m3
mass density (298.15 K, x1 = 0.5067): 785.59 ± 1 kg/m3
mass density (298.15 K, x1 = 0.6019): 798.72 ± 1 kg/m3
mass density (298.15 K, x1 = 0.7011): 815.7 ± 1 kg/m3
mass density (298.15 K, x1 = 0.7921): 835.57 ± 1 kg/m3
mass density (298.15 K, x1 = 0.8991): 866.69 ± 1 kg/m3
mass density (298.15 K, x1 = 1): 908.94 ± 1 kg/m3
viscosity (303.15 K, x1 = 0.1039): 1.241 ± 0.026 mPa·s
viscosity (303.15 K, x1 = 0.2032): 1.276 ± 0.027 mPa·s
viscosity (303.15 K, x1 = 0.3022): 1.325 ± 0.028 mPa·s
viscosity (303.15 K, x1 = 0.3997): 1.38 ± 0.029 mPa·s
viscosity (303.15 K, x1 = 0.4993): 1.521 ± 0.032 mPa·s
viscosity (303.15 K, x1 = 0.5994): 1.662 ± 0.035 mPa·s
viscosity (303.15 K, x1 = 0.7): 1.842 ± 0.039 mPa·s
viscosity (303.15 K, x1 = 0.797): 2.081 ± 0.045 mPa·s
viscosity (303.15 K, x1 = 0.9004): 2.463 ± 0.053 mPa·s
viscosity (303.15 K, x1 = 1): 3.037 ± 0.065 mPa·s
mass density (303.15 K, x1 = 0.1135): 747.35 ± 1 kg/m3
mass density (303.15 K, x1 = 0.2127): 753.86 ± 1 kg/m3
mass density (303.15 K, x1 = 0.3059): 761.1 ± 1 kg/m3
mass density (303.15 K, x1 = 0.3804): 767.83 ± 1 kg/m3
mass density (303.15 K, x1 = 0.5067): 781.69 ± 1 kg/m3
mass density (303.15 K, x1 = 0.6019): 794.79 ± 1 kg/m3
mass density (303.15 K, x1 = 0.7011): 811.73 ± 1 kg/m3
mass density (303.15 K, x1 = 0.7921): 831.56 ± 1 kg/m3
mass density (303.15 K, x1 = 0.8991): 862.66 ± 1 kg/m3
mass density (303.15 K, x1 = 1): 904.85 ± 1 kg/m3
viscosity (308.15 K, x1 = 0.1039): 1.142 ± 0.024 mPa·s
viscosity (308.15 K, x1 = 0.2032): 1.171 ± 0.025 mPa·s
viscosity (308.15 K, x1 = 0.3022): 1.213 ± 0.026 mPa·s
viscosity (308.15 K, x1 = 0.3997): 1.258 ± 0.027 mPa·s
viscosity (308.15 K, x1 = 0.4993): 1.378 ± 0.029 mPa·s
viscosity (308.15 K, x1 = 0.5994): 1.497 ± 0.032 mPa·s
viscosity (308.15 K, x1 = 0.7): 1.65 ± 0.035 mPa·s
viscosity (308.15 K, x1 = 0.797): 1.853 ± 0.04 mPa·s
viscosity (308.15 K, x1 = 0.9004): 2.176 ± 0.047 mPa·s
viscosity (308.15 K, x1 = 1): 2.661 ± 0.057 mPa·s
mass density (308.15 K, x1 = 0.1135): 743.6 ± 1 kg/m3
mass density (308.15 K, x1 = 0.2127): 750.06 ± 1 kg/m3
mass density (308.15 K, x1 = 0.3059): 757.26 ± 1 kg/m3
mass density (308.15 K, x1 = 0.3804): 763.96 ± 1 kg/m3
mass density (308.15 K, x1 = 0.5067): 777.76 ± 1 kg/m3
mass density (308.15 K, x1 = 0.6019): 790.82 ± 1 kg/m3
mass density (308.15 K, x1 = 0.7011): 807.72 ± 1 kg/m3
mass density (308.15 K, x1 = 0.7921): 827.52 ± 1 kg/m3
mass density (308.15 K, x1 = 0.8991): 858.59 ± 1 kg/m3
mass density (308.15 K, x1 = 1): 900.74 ± 1 kg/m3
viscosity (313.15 K, x1 = 0.1039): 1.055 ± 0.022 mPa·s
viscosity (313.15 K, x1 = 0.2032): 1.079 ± 0.023 mPa·s
viscosity (313.15 K, x1 = 0.3022): 1.114 ± 0.024 mPa·s
viscosity (313.15 K, x1 = 0.3997): 1.153 ± 0.025 mPa·s
viscosity (313.15 K, x1 = 0.4993): 1.254 ± 0.027 mPa·s
viscosity (313.15 K, x1 = 0.5994): 1.355 ± 0.029 mPa·s
viscosity (313.15 K, x1 = 0.7): 1.485 ± 0.032 mPa·s
viscosity (313.15 K, x1 = 0.797): 1.658 ± 0.035 mPa·s
viscosity (313.15 K, x1 = 0.9004): 1.933 ± 0.041 mPa·s
viscosity (313.15 K, x1 = 1): 2.344 ± 0.05 mPa·s
mass density (313.15 K, x1 = 0.1135): 739.84 ± 1 kg/m3
mass density (313.15 K, x1 = 0.2127): 746.24 ± 1 kg/m3
mass density (313.15 K, x1 = 0.3059): 753.4 ± 1 kg/m3
mass density (313.15 K, x1 = 0.3804): 760.06 ± 1 kg/m3
mass density (313.15 K, x1 = 0.5067): 773.81 ± 1 kg/m3
mass density (313.15 K, x1 = 0.6019): 786.82 ± 1 kg/m3
mass density (313.15 K, x1 = 0.7011): 803.68 ± 1 kg/m3
mass density (313.15 K, x1 = 0.7921): 823.45 ± 1 kg/m3
mass density (313.15 K, x1 = 0.8991): 854.48 ± 1 kg/m3
mass density (313.15 K, x1 = 1): 896.58 ± 1 kg/m3
viscosity (318.15 K, x1 = 0.1039): 0.977 ± 0.021 mPa·s
viscosity (318.15 K, x1 = 0.2032): 0.998 ± 0.021 mPa·s
viscosity (318.15 K, x1 = 0.3022): 1.028 ± 0.022 mPa·s
viscosity (318.15 K, x1 = 0.3997): 1.06 ± 0.023 mPa·s
viscosity (318.15 K, x1 = 0.4993): 1.146 ± 0.024 mPa·s
viscosity (318.15 K, x1 = 0.5994): 1.232 ± 0.026 mPa·s
viscosity (318.15 K, x1 = 0.7): 1.343 ± 0.029 mPa·s
viscosity (318.15 K, x1 = 0.797): 1.491 ± 0.032 mPa·s
viscosity (318.15 K, x1 = 0.9004): 1.725 ± 0.037 mPa·s
viscosity (318.15 K, x1 = 1): 2.074 ± 0.044 mPa·s
